From patent publication US10501450B2, “Anhydrate-free polymorphically pure micronized crystalline brexpiprazole di-hydrate for use in intramuscular injectable sustained release formulations” (HEXAL AG, priority 2016, dated 2019)
Like-named read-outs stand apart in the source and are kept apart here.

Legend:
[1] = Particle size distribution by laser diffraction (Malvern Mastersizer 3000, circulating aqueous suspension); assay type: physicochemical; conditions: volume distribution
Protocol: For the purpose of this invention, particle size distribution is determined as the percent volume at each particle size and measured by a laser diffraction method in the context of a circulating aqueous suspension. A Malvern Mastersizer 3000 laser diffraction analyzer equipped with a Hydro EV measurement cell was used. About 50 mg of sample were filled into a 15 ml glass test tube. The sample was wetted with two drops of Tween 80 and vortexed. Then the thoroughly wetted sample was dispersed in about 7 mL of UHQ-water by vortexing until the particles were dispersed. The suspension was treated for 7 minutes in an ultrasonification bath at RT (Elma S50H). The well dispersed suspension was then measured in water by adding a sample from the center of the test tube containing the well dispersed suspension to a water-filled dispersion unit prefilled with 70 mL of water. The sample in the 70 mL dispersion unit was kept under stirring at 2000 rpm. More sample from the test tube was added, until a targeted obscuration range of 10-25 percent was achieved. The Malvern Mastersizer was operated using the following parameters:
Measurement occurred after an optical alignment of the laser was done and after a background measurement was run. A measurement sequence consisted of eight individual measurements for which the mean value was represented as a histogram.
d90 as used herein means that 90% of the particles (based on volume) are smaller than or equal to the indicated size.
d50 as used herein means that 50% of the particles (based on volume) are smaller than or equal to the indicated size.
d10 as used herein means that 10% of the particles (based on volume) are smaller than or equal to the indicated size.
Particle size distribution was measured with a Malvern Mastersizer 3000 laser diffraction analyzer equipped with a Hydro EV measurement cell. About 50 mg of sample were given into a test tube. The sample was wetted with two drops of Tween 80 and dispersed in about 7 ml of water on a Vortexer. The suspension was treated for 7 minutes in a ultrasonification bath (Elma S50H). The well dispersed suspension was afterwards measured in water at a targeted obscuration range of 10-25 percent while circulating the aqueous suspension and stirring the suspension reservoir at 2000 rpm after a waiting period of three minutes. A fraunhofer optical model was utilized to deconvolute the sample scattering patterns to yield the resultant particle size distributions. Analysis model: General purpose/normal sensitivity. Measuring/background time: about 10 sec

[2] = Polymorphic stability of brexpiprazole dihydrate during wet ball milling, checked by PXRD; assay type: physicochemical; conditions: ball mill 25 Hz, 0.2 mL water, 10° C.
Protocol: The powder X-ray diffractogram was obtained with a PANalytical X'Pert PRO diffractometer equipped with a theta/theta coupled goniometer in transmission geometry, Cu-Kalpha1,2 radiation (wavelength 0.15419 nm) with a focusing mirror and a solid state PIXcel detector. The diffractogram was recorded at a tube voltage of 45 kV and a tube current of 40 mA, applying a stepsize of 0.013° 2-Theta with 40 s per step (255 channels) in the angular range of 2° to 40° 2-Theta at ambient conditions. A typical precision of the 2-Theta values is in the range of ±0.2° 2-Theta. […]
500 mg brexpiprazole dihydrate from comparative example 1 were milled in the presence of 0.2 mL water at 10° C. with a Retsch MM301 ball mill at 25 Hz for 5 min (1.5 ml jacket and 1 steel ball of 5 mm diameter). The obtained micronized crystalline material was analysed by PXRD and PSD. […] (Determined by the laser diffraction method in the context of a circulating aqueous suspension as the percent volume at each particle size and measured by a Malvern Mastersizer 3000 laser diffraction analyzer.)
500 mg brexpiprazole dihydrate from comparative example 1 were milled in the presence of 0.2 mL water at 10° C. with a Retsch MM301 ball mill at 25 Hz for 15 min (1.5 ml jacket and 1 steel ball of 5 mm diameter). The obtained micronized crystalline material was analysed by PXRD and PSD. […]

[3] = rats, intramuscular injection, 56 days after the injection, cited from earlier work
[4] = Solubility in water at 25° C.; assay type: physicochemical
Source text: The brexpiprazole dihydrate can then be added to an aqueous medium in which it is hardly soluble to form a suspension.

What does the source list for `O=c1ccc2ccc(OCCCCN3CCN(c4cccc5sccc45)CC3)cc2[nH]1` [Example 1]?
particle size distribution d10 [1]: 1.35 μm; particle size distribution d50 [1]: 8.24 μm; particle size distribution d90 [1]: 21 μm; transformation of dihydrate to anhydrate form I during micronization (PXRD peaks at 6.8° and 17.4°) ([2]; 5 min): had not transformed to brexpiprazole anhydrate form I

What does the source list for `O=c1ccc2ccc(OCCCCN3CCN(c4cccc5sccc45)CC3)cc2[nH]1` [Example 2]?
particle size distribution d10 [1]: 1.15 μm; particle size distribution d50 [1]: 7.04 μm; particle size distribution d90 [1]: 19 μm; transformation of dihydrate to anhydrate form I during micronization (PXRD peaks at 6.8°, 10.0° and 17.4°) ([2]; 15 min): had not transformed to brexpiprazole anhydrate form I

With `O=c1ccc2ccc(OCCCCN3CCN(c4cccc5sccc45)CC3)cc2[nH]1` [brexpiprazole anhydrate] as the compound, how does the “crystals detectable at the injection site” value [3] read?
The value was “no longer detectable”.

And the “solubility at 25° C. in water” value [4]?
The value was 18 µg/mL.

With `O=c1ccc2ccc(OCCCCN3CCN(c4cccc5sccc45)CC3)cc2[nH]1` [brexpiprazole dihydrate, 7-[4-[4-(1-Benzothiophen-4-yl)piperazin-1-yl]butoxy]quinolin-2(1H)-one dihydrate] as the compound, how does the “particle size distribution d90” value ([1]; listed as Reference Example 1, dihydrate) read?
Its value is “above 25 μm”.

What about the “crystals detectable at the injection site” value ([3]; dihydrate) of the same compound?
Its value is “can still be detected”.

What about the solubility ([4]; 25 °C) of the same compound?
Its solubility is 10 µg/mL.
